Tests used:
[1] = tested on: neonatal (P2) cardiomyocytes; assay: Induction of DNA synthesis (BrdU incorporation) in neonatal cardiomyocytes; type: cell-based, rat; conditions: BrdU labeling period 24 to 72 hours; harvested after 72 hours; optimal concentration of stimulus
Protocol: Animal experiments were performed in accordance with guidelines of Children's Hospital, Boston and UCLA. Ventricular cardiomyocytes from fetal (E19), 2-day-old (P2) and adult (250-350 g) Wistar rats (Charles River) were isolated as described with minor modifications (Engel et al. 1999; Engel et al. 2003). After digestion of fetal or neonatal hearts (0.14 mg/ml collagenase II (Invitrogen), 0.55 mg/ml pancreatin (Sigma)) cells were cultured in DMEM/F12 (GIBCO) containing 3 mM Na-pyruvate, 0.2% BSA, 0.1 mM ascorbic acid (Sigma), 0.5% Insulin-Transferrin-Selenium (100×), penicillin (100 U/ml), streptomycin (100 μg/ml), and 2 mM L-glutamine (GIBCO). Adult cardiomyocytes were cultured for 1 day in standard medium (DMEM, 25 mM Hepes, 5 mM taurine, 5 mM creatine, 2 mM L-carnitine (Sigma), 20 U/ml insulin (GIBCO), 0.2% BSA, penicillin (100 U/ml), and streptomycin (100 μg/ml)). Cells were stimulated in culture medium without BSA containing 2 mM L-glutamine. Neonatal and adult cardiomyocytes were initially cultured for 48 h in the presence of 20 μM cytosine β-D-arabinofuranoside (araC, Sigma) and 5% horse serum before stimulation to prevent proliferation of non-myocytes. Adult cardiomyocytes were incubated another 3 days with araC during stimulation. Neonatal cardiomyocytes were stimulated every day with growth factors for BrdU and H3P analyses (FGF1 and NRG-1-1β at 50 ng/ml, IL-1β at 100 ng/ml, R&D Systems, all diluted in 0.1% BSA/PBS). SB203580 and LY294002 (Calbiochem) was added every day. Adult cardiomyocytes were stimulated with fresh medium and SB203580 every 3 days.
Staining was performed as described (Supplemental Table S3) (Engel et al. 1999; Engel et al. 2003). Immune complexes were detected with ALEXA 350, ALEXA 488 or ALEXA 594-conjugated secondary antibodies (1:200, Molecular Probes). DNA was visualised with DAPI (4′,6′-diamidino-2-phenylindole, 0.5 μg/ml, Sigma). For BrdU, cells were cultured in 30 μM BrdU, incubated after permeabilization for 90 min in 2N HCl/1% triton X-100 and washed 3 times in PBS.
(§1) Eighteen to 40 hearts of 3 different litters were used for quantitative analyses of maximal areas. For immunofluorescence analyses 1,500 fetal or neonatal cardiomyocytes were counted. For adult cardiomyocyte analyses in vitro the following number of cells were counted: 500-2,000 for BrdU or Ki67, 9,000-25,000 for H3P, and 12,000-45,000 for aurora B. For in vivo MKK3bE and p38α knockout experiments 2 different litters were used. We counted 1,500-2,000 cells in each apex, left and right ventricle per heart. For adult experiments we analyzed 2 p38α^Δ/Δ and 2 p38^lox/lox hearts (24 sections each). Statistical significance was determined using Student's t test.
Several growth factors have a limited capacity to induce DNA synthesis in neonatal cardiomyocytes, including FGF1 (Pasumarthi and Field 2002). We screened 45 extracellular factors at two different concentrations for their ability to induce BrdU incorporation in neonatal (P2) cardiomyocytes. […] We confirmed previous studies showing that FGF1, IL-1β, and NRG-1-β1 are potent growth factors for neonatal cardiomyocytes (Supplemental Table S2) (Pasumarthi and Field 2002 Circ Res 90: 1044-54).
Inhibition of p38 activity by SB203580 increased BrdU incorporation 2.8-fold in neonatal cardiomyocytes stimulated with FGF1 (p<0.01). Similar results were obtained after stimulation with IL-1β and NRG-1-β1. Thus, inhibition of p38 activity augments growth factor-mediated DNA synthesis in neonatal cardiomyocytes.

adult cardiomyocytes = assay: Ki67 staining of adult cardiomyocytes; type: cell-based, rat; conditions: 12 days of stimulation
Protocol: Animal experiments were performed in accordance with guidelines of Children's Hospital, Boston and UCLA. Ventricular cardiomyocytes from fetal (E19), 2-day-old (P2) and adult (250-350 g) Wistar rats (Charles River) were isolated as described with minor modifications (Engel et al. 1999; Engel et al. 2003). After digestion of fetal or neonatal hearts (0.14 mg/ml collagenase II (Invitrogen), 0.55 mg/ml pancreatin (Sigma)) cells were cultured in DMEM/F12 (GIBCO) containing 3 mM Na-pyruvate, 0.2% BSA, 0.1 mM ascorbic acid (Sigma), 0.5% Insulin-Transferrin-Selenium (100×), penicillin (100 U/ml), streptomycin (100 μg/ml), and 2 mM L-glutamine (GIBCO). […]
Staining was performed as described (Supplemental Table S3) (Engel et al. 1999; Engel et al. 2003). Immune complexes were detected with ALEXA 350, ALEXA 488 or ALEXA 594-conjugated secondary antibodies (1:200, Molecular Probes). […]
as §1, with “For adult experiments we analyzed 2 p38α^Δ/Δ and 2 p38^lox/lox hearts (24 sections each). Statistical significance was determined using Student's t test.” left out

[2] = tested on: myocardial infarction in adult rats; assay: Vessel density in the scar area after myocardial infarction; type: in vivo, rat; conditions: rats after MI
Protocol: To determine whether p38 inhibition/FGF1 stimulation can induce cardiomyocyte proliferation in vivo and whether it has a positive effect on cardiac function after cardiac injury we created myocardial infarctions (MI) in adult rats (250 g) by coronary artery ligation. The p38 inhibitor SB203580 HCl or its vehicle, saline, were injected intraperitoneal every three days for the first month of the study. FGF1 or its carrier BSA was injected mixed with self-assembling peptides once into the infarct border zone immediately after coronary artery ligation. We injecting a total of 80 μl of 400 ng/ml FGF1, given at 3 different injection sites, into 400 mg of infarcted myocardium estimated to deliver a FGF 1 concentration to the cardiomyocytes of approximately 50 to 100 ng/ml. Animals were analyzed 24 hours, 2 weeks, and 3 month after surgery. […]
One possible explanation is the angiogenic effect of FGF1. To determine the effect of our treatments on vascularization we determined the vessel density in the scar area. […]
Hearts were embedded in tissue-freezing medium (Fisher) without fixation, frozen in 2-methylbutane (cooled in liquid nitrogen), stored at −80° C., and finally sectioned (20 μm; Leica 3050S). […] Immune complexes were detected with ALEXA 488-, or ALEXA 594-conjugated secondary antibodies (1:400; Molecular Probes). […]

FGF1: growth factor FGF1 (R&D Systems)
% of BrdU positive neonatal cardiomyoctes [1]: 61.8 ± 2.1%
Ki67-positive adult cardiomyocytes (adult cardiomyocytes): 1.7±0.5%
vessel density in the scar area [2]: increases significantly

— patent US20060281791A1, “Methods of increasing proliferation of adult mammalian cardiomyocytes through p38 map kinase inhibition” (CHILDREN'S MEDICAL CENTER CORPORATION, priority 2005, published 2006)
